Data taken from patent publication WO2023132380A1, “Polynucleotide for cancer treatment encoding 5'-nucleotidase modified protein” (Bpgene Co Ltd, priority 2022, dated 2023).

How the values were obtained:
[1] = target: Murine cytosolic 5'deoxyribnucleotidase mdNT-1 (Mus musculus, UniProt Q9JM14); settings: Preferred substrate, References: J. Biol. Chem. 275:5409-5415 (1990), Biochemical Pharmacol. 66: 471-479 (2003); cited from earlier work
[2] = target: Human cytosolic 5'deoxyribonucleotidase hdNT-1 (Homo sapiens, UniProt Q8TCD5); settings: Preferred substrate, References: J. Biol. Chem. 265:6589-6595 (1990), Biochemical Pharmacol. 66: 471-479 (2003); cited from earlier work
[3] = target: T1, Human mitochondrial 5'doxyribonucleotidase NT5M (hdNT-2) (Homo sapiens, UniProt Q9NPB1); settings: Preferred substrate, References: Biochem. 46:13809-13818 (2007), Biochemical Pharmacol. 66: 471-479 (2003); cited from earlier work
[4] = tested on: PBS2 TMP phosphohydrolase (T001), Thymidylate 5'-phosphohydrolase derived from Bacteriophage PBS2, SEQ ID NO: 3; settings: Preferred substrate, References: Methods Enzymol. 51:285-290 (1978), Also In house data; cited from earlier work
[5] = target: T1, Human mitochondrial 5'doxyribonucleotidase NT5M (hdNT-2); test: Preferred substrate (km), Table 4: NT5M (hdNT-2); type: biochemical; settings: human NT5M compared with T001, according to Table 4

T1 sequence (Q9NPB1 32-228): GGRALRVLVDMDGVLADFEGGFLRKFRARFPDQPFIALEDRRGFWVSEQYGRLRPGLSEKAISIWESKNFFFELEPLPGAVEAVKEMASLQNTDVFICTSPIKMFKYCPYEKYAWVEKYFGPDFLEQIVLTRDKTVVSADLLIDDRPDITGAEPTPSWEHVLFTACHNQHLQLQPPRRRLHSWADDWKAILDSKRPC
Chain of Murine cytosolic 5'deoxyribnucleotidase mdNT-1 (Q9JM14 whole entry): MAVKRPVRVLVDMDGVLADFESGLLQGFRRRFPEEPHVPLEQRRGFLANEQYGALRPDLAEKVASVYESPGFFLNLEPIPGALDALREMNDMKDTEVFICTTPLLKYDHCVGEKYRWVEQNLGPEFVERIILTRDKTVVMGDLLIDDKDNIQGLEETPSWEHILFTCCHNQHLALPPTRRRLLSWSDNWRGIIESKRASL
Chain of Human cytosolic 5'deoxyribonucleotidase hdNT-1 (Q8TCD5 whole entry): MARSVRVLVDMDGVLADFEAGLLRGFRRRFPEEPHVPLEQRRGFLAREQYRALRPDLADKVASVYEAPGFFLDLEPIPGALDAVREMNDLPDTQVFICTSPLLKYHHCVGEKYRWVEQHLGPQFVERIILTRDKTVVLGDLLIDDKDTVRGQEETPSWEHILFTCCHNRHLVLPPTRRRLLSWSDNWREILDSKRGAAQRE

Row | Structure (SMILES) | Km [1] [µM] | Km [2] [µM] | Km [3] [µM] | Km [4] [µM] | affinity for dTMP, times lower [5]
1 | Nc1ncnc2c1ncn2[C@H]1C[C@H](O)[C@@H](COP(=O)(O)O)O1 [dAMP] | 1000 | 3000 |  |  | 
2 | Cc1cn([C@H]2C[C@H](O)[C@@H](COP(=O)(O)O)O2)c(=O)[nH]c1=O [dTMP, thymidylate] | 1400 | 1500 | 300 | 10 | about 30 times
3 | Nc1nc2c(ncn2[C@H]2C[C@H](O)[C@@H](COP(=O)(O)O)O2)c(=O)[nH]1 [dGMP] | 1200 | 3300 | 90 | 700 | 
4 | O=c1ccn([C@H]2C[C@H](O)[C@@H](COP(=O)(O)O)O2)c(=O)[nH]1 [dUMP] | 800 | 1500 | 160 | 800 | 
